Measured values taken from publication PMC5982655, “Interaction of the New Monofunctional Anticancer Agent Phenanthriplatin With Transporters for Organic Cations” (Frontiers in Chemistry, 2018).

Key:
hMATE1 [1] = target: T1, hMATE1 (Homo sapiens, UniProt Q96FL8); parameters: method as in Astorga et al., [2012]; conditions: ref Astorga et al., [2012]; cited from earlier work
T1 construct: expressed in transfected cells
T1 sequence (Q96FL8 1-570): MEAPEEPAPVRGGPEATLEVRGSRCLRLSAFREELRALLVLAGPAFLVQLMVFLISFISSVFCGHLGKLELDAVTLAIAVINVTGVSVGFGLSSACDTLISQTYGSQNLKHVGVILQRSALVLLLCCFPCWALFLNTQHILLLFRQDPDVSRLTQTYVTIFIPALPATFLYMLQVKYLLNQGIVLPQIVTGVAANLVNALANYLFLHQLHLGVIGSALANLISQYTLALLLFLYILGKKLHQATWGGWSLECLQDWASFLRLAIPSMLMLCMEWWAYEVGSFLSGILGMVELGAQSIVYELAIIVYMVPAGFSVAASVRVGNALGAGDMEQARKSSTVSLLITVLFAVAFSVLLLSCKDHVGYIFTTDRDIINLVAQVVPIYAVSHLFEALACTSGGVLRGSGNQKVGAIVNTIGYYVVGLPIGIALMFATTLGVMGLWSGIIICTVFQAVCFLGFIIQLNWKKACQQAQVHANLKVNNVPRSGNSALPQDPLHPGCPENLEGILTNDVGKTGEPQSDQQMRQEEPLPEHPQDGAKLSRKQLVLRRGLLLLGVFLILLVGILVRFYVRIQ

hMATE2K = target: T2, hMATE2K (Homo sapiens, UniProt Q86VL8); parameters: method as in Astorga et al., [2012]; conditions: ref Astorga et al., [2012]; cited from earlier work
T2 construct: expressed in transfected cells

hMATE1 [2] = target: T1, hMATE1; test: Inhibition of ASP+ uptake in HEK 293 cells expressing hMATE1; type: cell-based; conditions: inhibition of ASP+ uptake, HEK293 hMATE1, Supplementary Figure 1
Experimental: (§1) The interaction of phenanthriplatin with transporters for organic cations (OCT1-3, MATE1, and MATE2K) was investigated by measuring its effects on the uptake of the fluorescent organic cation 4-(4-dimethylamino)styryl-N-methylpyridinium (ASP^+). Microfluorometric measurements of ASP^+ uptake were performed with a fluorescence plate reader (Infinity 200, Tecan, Crailsheim, Germany; excitation at 465 nm, emission at 590 nm) as described previously for cultured HEK 293 cells (Wilde et al., [2009]). Before measurements, the culture medium in the wells of the 96 well microtiter plate containing HEK 293 cells was replaced by a HCO3- -free Ringer-like solution containing (in mM) NaCl 145, K2HPO4 1.6, KH2PO4 0.4, D-glucose 5, MgCl2 1, calcium gluconate 1.3, and pH adjusted to 7.4. Fluorescence was measured dynamically at 37°C in each well before and after ASP^+ addition to HCO3- -free Ringer-like solution, alone or together with increasing phenanthriplatin concentrations, and plotted versus time. ASP^+ (final concentration 1 or 10 μM for experiments with OCTs or MATEs, respectively) was added after the third sampling interval. Emission from the complete area of the well bottom was analyzed four times and averaged for each well. […] Background fluorescence was measured for each plate in wells with identical solutions containing no cells and subtracted from each well containing cells. Experiments were performed with cells from one passage of the same day with controls and test replicates in the same plate.
(§2) Data are presented as mean values ± SEM, with (n) referring to the number of wells. IC50 values defined as the concentration of platinum agent required to inhibit uptake of ASP^+ by 50% and EC50 values used to assess cell viability were obtained by sigmoidal concentration-response curve fitting using GraphPad Prism, Version 5.3 (GraphPad Software, San Diego, USA). […] For multiple comparisons, ANOVA with Bonferroni post-test was used. A P-value < 0.05 was considered statistically significant.

Ctr1^−/− MEFs = test: MTT cell viability, Ctr1-/- MEFs; type: cell-based, mouse; conditions: 1 mM, 10 min
Experimental: (§3) A modified 3-(4,5-dimethylthiazol-2-yl)-2,5-diphenyltetrazolium bromide (MTT) assay (Mosmann, [1983]) was used to test the chemosensitivity of cells to phenanthriplatin and, in some experiments, to cisplatin by determining the glycolysis rate via the reduction of the yellow tetrazolium salt MTT to a purple formazan dye, as previously described (Wehe et al., [2014]). Briefly, after growing for 24 h in the incubator, cells expressing or not hOCT2, hMATE1, hMATE2 or Ctr1 were treated for 10 min with platinum derivatives. Control cells were incubated with drug-free complete cell culture medium. Afterwards, the medium was carefully removed and replaced by 200 μL of fresh complete cell culture medium. After incubation for another 24 h, 10 μL of MTT solution containing 5 mg/mL of the dye were added to each well, and the cells were again incubated for 3 h. The medium was then removed and 100 μL of lysis buffer containing 10% (w/v) sodium dodecyl sulfate and 40% (v/v) dimethylformamide was added to each well. The plates were shaken for 10 min to destroy the cell structure and dissolve the blue formazan dye (Furchert et al., [2007]; Wehe et al., [2014]). Finally, the absorbance was measured at 590 nm using an automated microtiter plate reader (Infinite M200; Tecan, Männedorf, Switzerland). The percentage of viable cells in the untreated controls was compared to that for the various treatments. Experiments carried out with DAOY and UW228 cells followed a similar protocol except that these cells were incubated for 24 h with phenanthriplatin.

Ctr1^+/+ MEFs = test: MTT cell viability, Ctr1+/+ MEFs; type: cell-based, mouse; conditions: 1 mM, 10 min
Experimental: as §3

hOCT2 = target: T3, hOCT2 (Homo sapiens, UniProt O15244); test: Inhibition of ASP+ uptake in HEK 293 cells expressing hOCT2; type: cell-based; conditions: HEK 293 hOCT2, 1 μM ASP+
T3 construct: expressed in transfected cells; gift of H. Koepsell
T3 sequence (O15244 1-555): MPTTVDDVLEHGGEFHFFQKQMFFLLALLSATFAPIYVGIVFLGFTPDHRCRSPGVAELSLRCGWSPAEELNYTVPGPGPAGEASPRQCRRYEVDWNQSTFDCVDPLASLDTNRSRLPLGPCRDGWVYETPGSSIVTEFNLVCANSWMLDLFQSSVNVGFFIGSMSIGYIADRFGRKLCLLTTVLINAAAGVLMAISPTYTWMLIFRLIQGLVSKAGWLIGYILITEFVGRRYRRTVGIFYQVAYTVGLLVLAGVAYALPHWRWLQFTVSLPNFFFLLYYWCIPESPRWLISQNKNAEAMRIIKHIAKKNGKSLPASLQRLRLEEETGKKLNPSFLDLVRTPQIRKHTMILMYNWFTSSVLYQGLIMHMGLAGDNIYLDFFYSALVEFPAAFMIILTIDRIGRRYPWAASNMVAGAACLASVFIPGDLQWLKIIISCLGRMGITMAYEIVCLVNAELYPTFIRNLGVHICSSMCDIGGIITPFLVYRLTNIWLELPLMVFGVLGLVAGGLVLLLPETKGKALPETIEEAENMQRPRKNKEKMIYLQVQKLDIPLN
Experimental: as §1, §2

hOCT1 = target: T4, hOCT1 (Homo sapiens, UniProt O15245); test: Inhibition of ASP+ uptake in HEK 293 cells expressing hOCT1; type: cell-based; conditions: HEK 293 hOCT1, 1 μM ASP+
T4 construct: expressed in transfected cells; gift of H. Koepsell
T4 sequence (O15245 1-554): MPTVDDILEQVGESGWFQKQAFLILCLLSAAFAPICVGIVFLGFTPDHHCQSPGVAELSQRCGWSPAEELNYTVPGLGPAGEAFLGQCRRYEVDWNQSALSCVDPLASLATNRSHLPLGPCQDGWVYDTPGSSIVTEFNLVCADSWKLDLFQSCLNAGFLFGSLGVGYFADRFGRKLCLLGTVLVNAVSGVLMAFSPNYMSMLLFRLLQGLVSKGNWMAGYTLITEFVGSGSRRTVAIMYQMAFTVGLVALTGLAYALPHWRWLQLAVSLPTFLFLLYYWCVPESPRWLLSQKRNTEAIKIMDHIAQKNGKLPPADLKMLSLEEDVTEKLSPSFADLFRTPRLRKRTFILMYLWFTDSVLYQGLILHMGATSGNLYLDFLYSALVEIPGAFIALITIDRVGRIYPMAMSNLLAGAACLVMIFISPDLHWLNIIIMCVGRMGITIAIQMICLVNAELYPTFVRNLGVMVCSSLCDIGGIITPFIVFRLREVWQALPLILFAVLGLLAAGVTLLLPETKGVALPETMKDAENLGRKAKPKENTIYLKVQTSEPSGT
Experimental: as §1, §2

HEK 293 hOCT2 cells = test: MTT cell viability, HEK 293 hOCT2 cells; type: cell-based, human; conditions: HEK 293 hOCT2, cimetidine alone (10 or 100 μM), 10 min
Experimental: as §3

T2 sequence (Q86VL8 1-566 isoform Q86VL8-3): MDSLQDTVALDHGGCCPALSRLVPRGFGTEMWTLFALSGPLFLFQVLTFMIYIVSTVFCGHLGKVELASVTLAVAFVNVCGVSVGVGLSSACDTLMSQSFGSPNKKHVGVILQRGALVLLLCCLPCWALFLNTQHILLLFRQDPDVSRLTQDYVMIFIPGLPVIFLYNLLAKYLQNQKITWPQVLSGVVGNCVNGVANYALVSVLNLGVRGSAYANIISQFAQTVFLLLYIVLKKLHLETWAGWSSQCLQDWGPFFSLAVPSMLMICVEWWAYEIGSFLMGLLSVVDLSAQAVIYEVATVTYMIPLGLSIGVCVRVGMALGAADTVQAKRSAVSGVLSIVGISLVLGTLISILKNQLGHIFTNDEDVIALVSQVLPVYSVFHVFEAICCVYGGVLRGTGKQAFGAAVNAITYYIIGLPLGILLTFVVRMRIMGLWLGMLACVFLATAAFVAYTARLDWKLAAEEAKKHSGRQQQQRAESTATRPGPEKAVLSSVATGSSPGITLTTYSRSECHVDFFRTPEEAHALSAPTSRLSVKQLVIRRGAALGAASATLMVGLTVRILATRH

Which “Affinity for hMATE1” value (hMATE1 [1]) does the source give for C[n+]1ccc(-c2ccccc2)cc1 [MPP^+, 1-methyl-4-phenylpyridinium] here?
The value was 4.7 µM.

What about the “Affinity for hMATE2K” value (hMATE2K) of the same compound?
Its value is 3.3 µM.

With N.N.[Cl][Pt][Cl] [cisplatin, reference compound] as the compound, how does the “Interaction (affinity) with hMATE1” value (hMATE1 [2]) read?
The value was “very low affinity”.

And the “Cell viability (MTT)” value (Ctr1^−/− MEFs)?
The value was “no decrease in cell viability”.

What about the “Cell viability (MTT)” value (Ctr1^+/+ MEFs) of the same compound?
Its value is “toxic to Ctr1^+/+”.

What about the IC50 (hOCT2) of the same compound?
Its IC50 is 50 µM.

What about the IC50 (hOCT1) of the same compound?
The IC50 was 61 µM.

Which “Cell viability (MTT)” value (HEK 293 hOCT2 cells) does the source give for CN/C(=N/CCSCc1nc[nH]c1C)NC#N [Cimetidine, cimetidine, reference compound] here?
The value was “no significant effect on cell viability”.
